According to patent US20230219995A1, “FLUORESCENT CYTOSINE ANALOGUES AND THEIR APPLICATION IN TRANSCRIPTION AND TRANSLATION” (STEALTH LABELS BIOTECH AB, priority 2020, published 2023):

Columns and labels:
[1] = Steady state absorption, emission and fluorescence quantum yield of tC^O-modified RNA transcripts; type: physicochemical; settings: free triphosphate
Description: A spectroscopic approach was used to quantify the incorporation efficiency of tC^O TP, compared to the canonical CTP. To enable this, all RNA transcripts were purified using a Monarch RNA Cleanup kit, ensuring complete removal of unreacted tC^O TP.
The tC^O-RNA products from the cell-free transcription reactions (prior to polyadenylation and capping, see Methods: Bio for details) were measured as received, i.e. in RNAse free Milli Q water. All measurements were carried out at room temperature (ca. 22° C.) in a 3.0 mm path length quartz cuvette, with a sample volume of ca. 60 μL.
Absorption spectra were recorded on a Cary 5000 (Varian Technologies) spectrophotometer with a wavelength interval of 1.0 nm, integration time of 0.1 s, and a spectral band width (SBW) of 1 nm. All spectra were baseline corrected by subtracting the corresponding absorption from the solvent only. A second-order polynomial Savitzky-Golay (five points) smoothing filter was applied to all spectra. […]
Emission spectra were recorded on a SPEX Fluorolog (Jobin Yvon Horiba) fluorimeter with excitation at 356 nm. […]
Sample fluorescence quantum yields (ΦF) were determined relative to a solution of quinine sulphate (Sigma) in 0.5 M H2SO4 (ΦF,REF=0.546) and calculated according to equation S2. […]

[2] = molecular target: T1, SP6 RNA polymerase (Enterobacteria phage SP6, UniProt P06221); experiment: Cell-free in vitro transcription with SP6 RNA polymerase (tC^O TP/CTP ratios 0-100%); type: biochemical, bacteriophage; settings: tC^O TP/canonical CTP ratios 0 to 100%, agarose bleach gel
T1 construct: purchased Thermo Scientific
T1 sequence (P06221 1-874): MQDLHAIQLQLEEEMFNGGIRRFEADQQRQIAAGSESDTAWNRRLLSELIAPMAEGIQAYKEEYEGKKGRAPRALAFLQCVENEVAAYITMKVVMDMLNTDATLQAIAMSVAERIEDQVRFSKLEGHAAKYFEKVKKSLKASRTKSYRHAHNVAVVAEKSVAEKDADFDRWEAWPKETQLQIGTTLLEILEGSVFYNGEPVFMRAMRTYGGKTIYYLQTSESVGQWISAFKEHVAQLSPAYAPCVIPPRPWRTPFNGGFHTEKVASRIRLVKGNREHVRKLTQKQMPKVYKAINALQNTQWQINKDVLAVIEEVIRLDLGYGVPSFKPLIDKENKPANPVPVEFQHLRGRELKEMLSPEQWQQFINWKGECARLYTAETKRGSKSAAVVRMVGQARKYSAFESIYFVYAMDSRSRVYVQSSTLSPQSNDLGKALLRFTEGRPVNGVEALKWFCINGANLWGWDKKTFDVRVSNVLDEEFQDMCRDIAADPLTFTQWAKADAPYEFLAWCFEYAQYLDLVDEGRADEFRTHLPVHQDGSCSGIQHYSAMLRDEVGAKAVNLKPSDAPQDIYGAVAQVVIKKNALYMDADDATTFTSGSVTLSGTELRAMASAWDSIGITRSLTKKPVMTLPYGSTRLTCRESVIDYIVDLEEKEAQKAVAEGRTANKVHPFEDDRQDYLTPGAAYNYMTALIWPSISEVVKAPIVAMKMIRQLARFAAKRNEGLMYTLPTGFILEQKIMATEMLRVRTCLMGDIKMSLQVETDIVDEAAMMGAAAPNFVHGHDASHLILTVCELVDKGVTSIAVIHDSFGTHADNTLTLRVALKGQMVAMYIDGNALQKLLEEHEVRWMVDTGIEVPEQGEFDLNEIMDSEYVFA

[3] = molecular target: T2, T7 RNA polymerase (Escherichia phage T7, UniProt P00573); experiment: Cell-free in vitro transcription with T7 RNA polymerase (tC^O TP/CTP ratios 0-100%); type: biochemical, bacteriophage
T2 construct: purchased Thermo Scientific
T2 sequence (P00573 whole entry): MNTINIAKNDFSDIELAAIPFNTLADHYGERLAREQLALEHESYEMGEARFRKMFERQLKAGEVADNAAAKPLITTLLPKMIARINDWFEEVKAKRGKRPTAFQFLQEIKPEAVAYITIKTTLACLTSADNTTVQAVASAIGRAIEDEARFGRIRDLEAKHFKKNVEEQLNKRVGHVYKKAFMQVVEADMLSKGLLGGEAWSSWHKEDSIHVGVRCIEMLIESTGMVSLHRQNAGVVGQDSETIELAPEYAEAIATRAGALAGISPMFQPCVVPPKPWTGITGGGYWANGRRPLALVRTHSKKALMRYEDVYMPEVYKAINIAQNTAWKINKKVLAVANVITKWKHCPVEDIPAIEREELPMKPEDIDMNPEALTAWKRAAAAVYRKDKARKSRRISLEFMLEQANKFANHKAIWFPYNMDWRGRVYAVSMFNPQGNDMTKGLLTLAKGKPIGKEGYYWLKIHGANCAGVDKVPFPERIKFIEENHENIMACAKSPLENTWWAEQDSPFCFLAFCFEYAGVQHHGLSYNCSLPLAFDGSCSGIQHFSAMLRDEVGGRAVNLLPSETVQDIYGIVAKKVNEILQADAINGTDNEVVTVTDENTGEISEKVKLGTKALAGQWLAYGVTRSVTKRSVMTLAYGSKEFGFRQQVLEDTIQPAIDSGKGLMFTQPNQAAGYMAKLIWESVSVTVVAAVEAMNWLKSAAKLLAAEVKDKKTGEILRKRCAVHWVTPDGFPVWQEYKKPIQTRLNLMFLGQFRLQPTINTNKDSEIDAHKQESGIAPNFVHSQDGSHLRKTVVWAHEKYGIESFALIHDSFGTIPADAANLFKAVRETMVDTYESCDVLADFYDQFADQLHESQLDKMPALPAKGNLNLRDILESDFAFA

## ((2R,3S,4R,5R)-3,4-dihydroxy-5-(2-oxo-2,10-dihydro-3H-benzo[b]pyrimido[4,5-e][1,4]oxazin-3-yl)tetrahydrofuran-2-yl)methyl triphosphate [tC^O TP]
[1]
  tC^O-band absorption λmax: 360 nm
[2]
  transcription and tC^O incorporation into full-length H2B:GFP mRNA: Efficient transcription and tC^O incorporation
[3]; calculated from absorption at 260 nm and 370 nm of purified transcripts
  kC/ktC^O, ratio of first-order rate constants for incorporation of CTP vs. tC^O TP: 0.96-1.4
[3]; tC^O TP/canonical CTP ratios 0 to 100%, agarose bleach gel
  transcription and tC^O incorporation into full-length H2B:GFP mRNA: Efficient transcription and tC^O incorporation
